Laboratory results from patent US20240174650A1, “8-(PICOLINAMIDE) SUBSTITUTED COUMARIN COMPOUND, AND PREPARATION METHOD THEREFOR AND USE THEREOF” (LONGIVITRON (SUZHOU) BIOTECHNOLOGY CO., LTD, priority 2021, published 2024).

Assays:
[1] = target: SIRT2 recombinant protein (Homo sapiens (Human), UniProt Q8IXJ6); assay: In vitro activity screening of SIRT2 inhibitors (fluorogenic Ac-Gln-Pro-Lys-[Lys-(Ac)]-AMC peptide deacetylation assay); type: biochemical; conditions: recombinant SIRT2 1.0 μg, 500 μM NAD+, 50 μM substrate peptide, 37° C. 2 hours
Chain of SIRT2 recombinant protein (Q8IXJ6 whole entry): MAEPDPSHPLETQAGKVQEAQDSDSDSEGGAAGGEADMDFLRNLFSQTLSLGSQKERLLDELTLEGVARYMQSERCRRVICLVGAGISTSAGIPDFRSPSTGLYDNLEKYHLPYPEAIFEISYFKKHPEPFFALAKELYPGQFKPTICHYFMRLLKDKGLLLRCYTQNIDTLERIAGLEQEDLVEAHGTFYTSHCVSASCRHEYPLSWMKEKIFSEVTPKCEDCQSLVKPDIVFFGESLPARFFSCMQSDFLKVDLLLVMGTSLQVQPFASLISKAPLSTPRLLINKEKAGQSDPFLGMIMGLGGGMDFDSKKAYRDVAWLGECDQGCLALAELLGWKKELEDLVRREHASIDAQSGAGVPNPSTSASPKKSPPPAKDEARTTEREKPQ
Text: In vitro activity screening of SIRT2 inhibitors:
The full-length expression sequence ORF of the human SIRT2 gene is 1170 bp (Accession No.: NM_012237), and the molecular mass of the expressed SIRT2 protein is 43 KDa. The SIRT2 recombinant protein is expressed and purified according to the following steps: the SIRT2 gene was cloned into the expression vector pET-15b (primers were shown as follows: forward: 5 ? -[…]-3 ? (SEQ ID NO. 1); backward: 5 ? -[…]-3 ? (SEQ ID NO. 2)), and the expressed SIRT2 protein contained His6-tag at the N-terminus for purification. The plasmid was transformed into E. coli […], and expressed for 6 h at 18° C. with 1 mM IPTG induction. The induced E. coli cells were collected by centrifugation and frozen at −20° C. Bacterial pellet was re-suspended in 15 mL of cell lysis buffer (50 mM Tris-HCl pH 8.0, 300 mM NaCl), and the bacterial sample was disrupted by sonication for 10 min, and then centrifuged (12000×g, 20 min) at 4° C. to remove the precipitates.
The supernatant was purified by Ni^2+ NTA-agarose matrix column (Qiagen). In the purification process, the unbound proteins were first washed away with the loading buffer (50 mM Tris-HCl pH 8.0, 300 mM NaCl), subsequently, the non-specifically bound proteins were washed away by gradually increasing the concentration of imidazole (0-200 mM), and finally the purified recombinant SIRT2 protein was obtained. Imidazole was removed using a PD-10 column and the concentration of purified SIRT2 protein was determined by the Bradford method. The recombinant SIRT2 protein was stored at −20° C. in a preservation buffer (50 mM Tris-HCl, pH 8.0, 265 mM NaCl, 0.2 mM DTT, and 10% glycerol).
The SIRT2 enzyme activity assay is established based on the published studies. Firstly, peptide segment Ac-Gln-Pro-Lys-[Lys-(Ac)]-AMC, the substrate of SIRT2, was synthesized to serve as a substrate in the enzyme activity assay. The attached fluorescent label was AMC (7-Amino-4-methylcoumarin). […] The reaction was carried out at 37° C. for 2 hours. […] Afterwards, 60 μL of sample treating solution (50 mM Tris-HCl, pH 8.0, 100 mM NaCl, Trypsin and 4 mM nicotinamide) was added to the reaction solution and mixed, and placed at 37° C. for 20 min. Absorption intensity was measured by the enzyme-labeled instrument configured as an excitation light of 355 nm and an absorption light of 460 nm.

[2] = test system: neuroblastoma cell SH-SY5Y; assay: Cytotoxicity assay for neuroblastoma cell SH-SY5Y (AlamarBlue); type: cell-based; conditions: 48 hours incubation
Experimental: (§1) Cytotoxicity assay of compounds for neuroblastoma cell SH-SY5Y:
(§2) This testing example investigates the cytotoxicity of compounds against neuroblastoma cell SH-SY5Y, in order to determine the dose for the Parkinson ? s cell model protection assay in the next step. For the cytotoxicity assay, the specific test steps are as follows: the cultured neuroblastoma cell SH-SY5Y was grown in a 96-well cell culture plate with approximately 6000 cells per well. After overnight incubation, the culture medium was exchanged for a new one, and each well was added with different concentrations of Compounds 1-18 ([…], 10, 20, 50, 100, 200 μM), and different control samples were arranged. The cells were continued to be incubated at 37° C. for 48 hours. Each well was added with 10 μL of the dye AlamarBlue® (Invitrogen), and the cells were continued to be incubated at 37° C. for approximately 2 hours and then a color change of the staining solution could be observed; the change of absorption values was obtained on the enzyme-labeled instrument (Ex: 530 nm; Em: 590 nm). In the assay, there were 2 parallel tests for each compound with each concentration. The results were processed with software GraphPad Prism to calculate the cytotoxicity CC50 of each compound. The results are shown in Table 2 (in which Taxol is the positive control group).

[3] = test system: SH-SY5Y cells damaged by neurotoxicant MPP+; assay: Protective activity on Parkinson's disease cell model (MPP+ treated SH-SY5Y, cell viability); type: cell-based; conditions: compound 10 μM, MPP+ 5 mM, 48 h; FIG. 1
Experimental: Screening for compounds with protective activity on Parkinson ? s disease cell model:
For the screening test for protective effects on the Parkinson ? s disease cell model, the commonly recognized neurotoxicant MPP^+ (5 mM) is used on the neuroblastoma cell SH-SY5Y to construct the Parkinson ? s disease cell model. This neurotoxicant acts on the SH-SY5Y cell, induces abnormal accumulation of α-synuclein in the cells and causes Parkinson ? s disease-like neurotoxicity. The specific test method is as follows: approximately 20000 SH-SY5Y cells were grown in a 96-well cell plate and cultured overnight. […] The cell viability of the Parkinson ? s disease cell model was determined to assess the protective effects of the compounds on the Parkinson ? s cell model. The test data were analyzed by using GraphPad Prism.

[4] = Cytotoxicity assay for neuroblastoma cell SH-SY5Y (AlamarBlue); type: cell-based; conditions: human, SH-SY5Y neuroblastoma cells, 48 hours incubation
Experimental: as §1, §2

Structure (SMILES)	IC50 [1]	CC50 [2]	protective effect against SH-SY5Y cell damage by MPP+ (cell viability) [3]	CC50 at 48 h [4]
O=C(Nc1ccnc(S(=O)(=O)Nc2ccc(-c3ccccc3)cc2)c1)c1cccc2ccc(=O)oc12 [Compound 10, N-(2-(N-(4-phenylphenyl)aminosulfonyl)-pyridin-4-yl)-2-oxo-2H-chromene-8-amide]	652 nM	>20 μmol[…]L^−1	–	–
O=C(Nc1ccnc(S(=O)(=O)Nc2ccc(Cl)c(Br)c2)c1)c1cccc2ccc(=O)oc12 [Compound 14, N-(2-(N-(3-bromo-4-chlorophenyl)aminosulfonyl)-pyridin-4-yl)-2-oxo-2H-chromene-8-amide]	195 nM	>20 μmol[…]L^−1	more obvious protective effects	–
COc1ccc(NS(=O)(=O)c2cc(NC(=O)c3cccc4ccc(=O)oc34)ccn2)cc1 [Compound 12, N-(2-(N-(4-methoxylphenyl)aminosulfonyl)-pyridin-4-yl)-2-oxo-2H-chromene-8-amide]	2360 nM	>20 μmol[…]L^−1	–	–
O=C(Nc1ccnc(S(=O)(=O)Nc2cc(Cl)cc3ccccc23)c1)c1cccc2ccc(=O)oc12 [Compound 16, N-(2-(N-(3-chloronaphth-1-yl)aminosulfonyl)-pyridin-4-yl)-2-oxo-2H-chromene-8-amide]	86 nM	>20 μmol[…]L^−1	–	–
CS(=O)(=O)c1ccc(NS(=O)(=O)c2cc(NC(=O)c3cccc4ccc(=O)oc34)ccn2)cc1 [Compound 8, N-(2-(N-(4-methylsulfonylphenyl)aminosulfonyl)-pyridin-4-yl)-2-oxo-2H-chromene-8-amide]	896 nM	>20 μmol[…]L^−1	–	–
N#Cc1ccccc1NS(=O)(=O)c1cc(NC(=O)c2cccc3ccc(=O)oc23)ccn1 [Compound 6, N-(2-(N-(2-cyanophenyl)aminosulfonyl)-pyridin-4-yl)-2-oxo-2H-chromene-8-amide]	1700 nM	>20 μmol[…]L^−1	–	–
O=C(Nc1ccnc(S(=O)(=O)Nc2cccc(Cl)c2)c1)c1cccc2ccc(=O)oc12 [Compound 2, N-(2-(N-(3-chlorophenyl)aminosulfonyl)-pyridin-4-yl)-2-oxo-2H-chromene-8-amide]	359 nM	>20 μmol[…]L^−1	–	–
CC(=O)O[C@H]1C(=O)[C@@]2(C)[C@H]([C@H](OC(=O)c3ccccc3)[C@]3(O)C[C@H](OC(=O)[C@H](O)[C@@H](NC(=O)c4ccccc4)c4ccccc4)C(C)=C1C3(C)C)[C@]1(OC(C)=O)CO[C@@H]1C[C@@H]2O [Taxol, reference compound]	–	–	–	21 nM
O=C(Nc1ccnc(S(=O)(=O)Nc2cccc3ccc(Br)cc23)c1)c1cccc2ccc(=O)oc12 [Compound 15, N-(2-(N-(7-bromonaphth-1-yl)aminosulfonyl)-pyridin-4-yl)-2-oxo-2H-chromene-8-amide]	154 nM	>20 μmol[…]L^−1	more obvious protective effects	–
O=C(Nc1ccnc(S(=O)(=O)Nc2ccc(Cl)cc2)c1)c1cccc2ccc(=O)oc12 [Compound 1, N-(2-(N-(4-chlorophenyl)aminosulfonyl)-pyridin-4-yl)-2-oxo-2H-chromene-8-amide]	86 nM	>20 μmol[…]L^−1	more obvious protective effects	–
Cc1ccc(NS(=O)(=O)c2cc(NC(=O)c3cccc4ccc(=O)oc34)ccn2)cc1 [Compound 4, N-(2-(N-(4-methylphenyl)aminosulfonyl)-pyridin-4-yl)-2-oxo-2H-chromene-8-amide]	356 nM	>20 μmol[…]L^−1	–	–
O=C(Nc1ccnc(S(=O)(=O)Nc2ccc(F)c(F)c2)c1)c1cccc2ccc(=O)oc12 [Compound 13, N-(2-(N-(3,4-difluorophenyl)aminosulfonyl)-pyridin-4-yl)-2-oxo-2H-chromene-8-amide]	80 nM	>20 μmol[…]L^−1	more obvious protective effects	–
O=C(Nc1ccnc(S(=O)(=O)Nc2ccc(C(F)(F)F)cc2)c1)c1cccc2ccc(=O)oc12 [Compound 9, N-(2-(N-(4-trifluoromethylphenyl)aminosulfonyl)-pyridin-4-yl)-2-oxo-2H-chromene-8-amide]	90 nM	>20 μmol[…]L^−1	–	–
O=C(Nc1ccnc(S(=O)(=O)Nc2cccc([N+](=O)[O-])c2)c1)c1cccc2ccc(=O)oc12 [Compound 5, N-(2-(N-(3-nitrophenyl)aminosulfonyl)-pyridin-4-yl)-2-oxo-2H-chromene-8-amide]	180 nM	>20 μmol[…]L^−1	–	–
O=C(Nc1ccnc(S(=O)(=O)Nc2cccc3ncccc23)c1)c1cccc2ccc(=O)oc12 [Compound 17, N-(2-(N-(quinoline-5-yl)aminosulfonyl)-pyridin-4-yl)-2-oxo-2H-chromene-8-amide]	871 nM	>20 μmol[…]L^−1	–	–
O=C(Nc1ccnc(S(=O)(=O)Nc2ccc(O)cc2)c1)c1cccc2ccc(=O)oc12 [Compound 11, N-(2-(N-(4-hydroxyphenyl)aminosulfonyl)-pyridin-4-yl)-2-oxo-2H-chromene-8-amide]	896 nM	>20 μmol[…]L^−1	–	–
O=C(Nc1ccnc(S(=O)(=O)Nc2ccc(F)cc2)c1)c1cccc2ccc(=O)oc12 [Compound 7, N-(2-(N-(4-fluorophenyl)aminosulfonyl)-pyridin-4-yl)-2-oxo-2H-chromene-8-amide]	120 nM	>20 μmol[…]L^−1	–	–
O=C(Nc1ccnc(S(=O)(=O)Nc2ccccc2Cl)c1)c1cccc2ccc(=O)oc12 [Compound 3, N-(2-(N-(2-chlorophenyl)aminosulfonyl)-pyridin-4-yl)-2-oxo-2H-chromene-8-amide]	1230 nM	>20 μmol[…]L^−1	–	–
